Measured values as given in article PMC12709424, “Markovian state models uncover casein kinase 1 dynamics that govern circadian period” (Biophysical Journal, 2025).

How the values were obtained:
CK1 [1] = test: 32P-ATP time course kinase assay, PER3 FASP-like peptides; type: biochemical, human; details: 32P-ATP time course, 200 μM peptide, 200 nM CK1 (unprimed), 750 μM ATP, 30°C, pH 7.5; four independent assays; Fig. S15E, F
Procedure: (§1) PER FASP region peptides were synthesized and purified to 95% or higher (SABio). Two independent reaction mixtures of 50 μL containing 200 μM of the FASP or in reaction buffer (25 mM Tris (pH 7.5), 7.5 mM MgCl2, 1 mM DTT, and 0.1 mg/mL BSA) were preincubated for 5 min with or without 20 nM CK1 (for primed FASP) or 200 nM CK1 (for unprimed FASP) and the reaction was started by addition of 750 μM of UltraPure ATP (Promega) containing 1–2 μCi of ɣ-^32p ATP (PerkinElmer). After incubation of the reaction mix at 30°C, an 8-μL aliquot of the reaction mix was transferred to P81 phosphocellulose paper (Reaction Biology Corp) at the indicated timepoints. […] The air-dried P81 paper was counted for Pi incorporation using a scintillation counter (PerkinElmer) by Cherenkov counting. […]
(§2) To map binding sites on the surface of CK1, we employed FTMap, a fast computational approach that uses small organic probes to identify consensus sites (or pockets) that are likely to bind drug -like molecules. We submitted a series of conformations representative of the most populated MSM states to the FTMap server (https://ftmap.bu.edu/) and analyzed the results with FTProd. […] Tables S7 and S8 describe the consensus sites (CS) detected for WT and tau conformations, respectively. When a site is detected (colorful cells), it contains a score based on (1 picture or pasted object on this page, not shown here)

CK1 D132A = test: 32P-ATP time course kinase assay, CK1 D132A compared with WT; type: biochemical, human; details: 200 μM peptide, 30°C, pH 7.5, four independent assays
Procedure: as §1
as §2, with “(1 picture or pasted object on this page, not shown here)” left out

[2] = target: Human CK1δ catalytic domain (CK1, residues 1–317), wild type (human) (UniProt P48730)
UniProt P48730, sequence (P48730 other isoform, or with tags, fused parts or gaps mutant): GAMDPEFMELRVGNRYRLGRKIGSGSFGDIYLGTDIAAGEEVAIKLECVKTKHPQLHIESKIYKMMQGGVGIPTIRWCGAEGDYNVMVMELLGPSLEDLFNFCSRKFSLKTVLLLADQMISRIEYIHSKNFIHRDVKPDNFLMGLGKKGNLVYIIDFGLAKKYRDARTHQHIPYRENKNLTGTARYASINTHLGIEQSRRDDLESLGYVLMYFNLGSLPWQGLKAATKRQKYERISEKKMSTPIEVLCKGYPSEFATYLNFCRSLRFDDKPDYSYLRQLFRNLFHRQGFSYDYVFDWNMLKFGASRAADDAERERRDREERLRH

CK1 [3] = details: cited from earlier work
Description: Here, we further tested our model by introducing a lysine at the −3 position and a glutamate at the −1 position of PER3 FASP-like peptides (A610K/L612E) to mimic the PER2 FASP priming region and rescue priming activity. These mutant peptides were used in a ^32P-ATP time course kinase assay ...

For “RKKKPSTDIEGGAAR TLSTKAESVAAGIAQ [A610K/L612E (priming only), PER3 KAE peptide with serine residues downstream of the priming site mutated to alanine]”, the “CK1 activity in presence of −3K and −1E (in words)” value (CK1 [1]) was “increase in CK1 activity”.

With “RKKKPSTDIEGGAART LSTKAESVASGISQ [A610K/L612E, PER3 FASP-like peptide with −3K and −1E (A610K/L612E)]” the “CK1 activity in presence of −3K and −1E (in words)” value (CK1 [1]) was “increase in CK1 activity”.

In the case of “RKKKTEVSAHLSSLTL PGKAEpSVVSLTSQ [primed FASP peptide, synthetic mouse PER2 FASP peptide, pS659 primed]”, the “activity of CK1 D132A compared with CK1 WT on primed FASP (in words)” value (CK1 D132A; 20 nM CK1, 750 μM ATP, Fig. S15C) is reported as “more modest effect”.

For “RKKKTEVSAHLSSLTLP GKAESVVSLTSQ [unprimed FASP peptide, synthetic mouse PER2 FASP peptide, unprimed]”, the “activity of CK1 D132A compared with CK1 WT on unprimed FASP (in words)” value (CK1 D132A; 200 nM CK1, 750 μM ATP, Fig. S15B) was “dramatic loss in activity”.

Work on “human PER2 FASP peptide, alanine at position −1 (E661) in the “priming only” (S665A) background” yielded a fold change of the apparent Michaelis-Menten constant (KMapp) against the WT “priming only” substrate, ADP-Glo substrate titration [2] of 10 fold.

Work on “human PER2 FASP peptide, alanine at position −3 (K659) in the “priming only” (S665A) background” yielded a fold change of the apparent Michaelis-Menten constant (KMapp) against the WT “priming only” substrate, ADP-Glo substrate titration [2] of 10 fold.

Molecule “human PER2 FASP peptide, “priming only” (S665A)” has an apparent Michaelis-Menten constant (KMapp) of CK1 priming activity, ADP-Glo substrate titration (200 nM CK1, 100 μM ATP, room temperature, 1 h) [2] of 210 µM.

B1: PER3: PER homolog within the circadian system (protein, UniProt P56645 1-1201, looked up)
Period circadian protein …: MPRGEAPGPGRRGAKDEALGEESGERWSPEFHLQRKLADSSHSEQQDRNRVSEELIMVVQEMKKYFPSERRNKPSTLDALNYALRCVHSVQANSEFFQILSQNGAPQADVSMYSLEELATIASEHTSKNTDTFVAVFSFLSGRLVHISEQAALILNRKKDVLASSHFVDLLAPQDMRVFYAHTARAQLPFWNNWTQRAARYECAPVKPFFCRIRGGEDRKQEKCHSPFRIIPYLIHVHHPAQPELESEPCCLTVVEKIHSGYEAPRIPVNKRIFTTTHTPGCVFLEVDEKAVPLLGYLPQDLIGTSILSYLHPEDRSLMVAIHQKVLKYAGHPPFEHSPIRFCTQNGDYIILDSSWSSFVNPWSRKISFIIGRHKVRTSPLNEDVFATKIKKMNDNDKDITELQEQIYKLLLQPVHVSVSSGYGSLGSSGSQEQLVSIASSSEASGHRVEETKAEQMTLQQVYASVNKIKNLGQQLYIESMTKSSFKPVTGTRTEPNGGGECKTFTSFHQTLKNNSVYTEPCEDLRNDEHSPSYQQINCIDSVIRYLKSYNIPALKRKCISCTNTTSSSSEEDKQNHKADDVQALQAGLQIPAIPKSEMPTNGRSIDTGGGAPQILSTAMLSLGSGISQCGYSSTIVHVPPPETARDATLFCEPWTLNMQPAPLTSEEFKHVGLTAAVLSAHTQKEEQNYVDKFREKILSSPYSSYLQQESRSKAKYSYFQGDSTSKQTRSAGCRKGKHKRKKLPEPPDSSSSNTGSGPRRGAHQNAQPCCPSAASSPHTSSPTFPPAAMVPSQAPYLVPAFPLPAATSPGREYAAPGTAPEGLHGLPLSEGLQPYPAFPFPYLDTFMTVFLPDPPVCPLLSPSFLPCPFLGATASSAISPSMSSAMSPTLDPPPSVTSQRREEEKWEAQSEGHPFITSRSSSPLQLNLLQEEMPRPSESPDQMRRNTCPQTEYCVTGNNGSESSPATTGALSTGSPPRENPSHPTASALSTGSPPMKNPSHPTASALSTGSPPMKNPSHPTASTLSMGLPPSRTPSHPTATVLSTGSPPSESPSRTGSAASGSSDSSIYLTSSVYSSKISQNGQQSQDVQKKETFPNVAEEPIWRMIRQTPERILMTYQVPERVKEVVLKEDLEKLESMRQQQPQFSHGQKEELAKVYNWIQSQTVTQEIDIQACVTCENEDSADGAATSCGQVLVEDSC
In the case of B1, the “CK1 substrate status (in words)” value (CK1 [3]) is given as “does not appear to be a substrate of the kinase”.
